Experimental data published in ChEMBL document CHEMBL6074649, “An insight into recent developments in imidazole based heterocyclic compounds as anticancer agents: Synthesis, SARs, and mechanism of actions” (Eur J Med Chem, 2024).
pEC50, pIC50: −log10 of the molar value. Values after ≈ are worked out from the molar mass of the structure shown.

What was measured:
A549 [1] = test: Antiproliferative activity against human A549 cells assessed as reduction in cell growth; type: functional, cell-based
MG-63 = test: Antiproliferative activity against human MG-63 cells; type: functional, cell-based
MCF7 [2] = test: Antiproliferative activity against human MCF7 cells; type: functional, cell-based
[3] = Antiproliferative activity against HEK293 cells; type: toxicity, cell-based; details: human
HeLa [4] = test: Antiproliferative activity against human HeLa cells assessed as inhibition of cell growth at 20 uM measured for 48 hrs by MTT assay relative to control; type: functional
HT-29 [5] = test: Antiproliferative activity against human HT-29 cells assessed as inhibition of cell growth at 20 uM measured for 48 hrs by MTT assay relative to control; type: functional
A549 [6] = test: Antiproliferative activity against human A549 cells assessed as inhibition of cell growth at 20 uM measured for 48 hrs by MTT assay relative to control; type: functional
HCT-15 [7] = test: Antiproliferative activity against human HCT-15 cells assessed as inhibition of cell growth at 20 uM measured for 48 hrs by MTT assay relative to control; type: functional
MDA-MB-231 [8] = test: Antiproliferative activity against human MDA-MB-231 cells assessed as inhibition of cell growth at 20 uM measured for 48 hrs by MTT assay relative to control; type: functional
A549 [9] = test: Cytotoxicity against human A549 cells; type: functional, cell-based
HeLa [10] = test: Cytotoxicity against human HeLa cells; type: functional, cell-based
MCF7 [11] = test: Cytotoxicity against human MCF7 cells; type: functional, cell-based
[12] = Cytotoxicity against human MCF-10A cells; type: toxicity, cell-based
B16-F10 = test: Cytotoxicity against mouse B16-F10 cells; type: functional, cell-based
[13] = Cytotoxicity against mouse L929 cells; type: toxicity, cell-based
[14] = Cytotoxicity against mouse EMT6/AR1 cells; type: functional, cell-based
HeLa [15] = test: Antiproliferative activity against human HeLa cells assessed as inhibition of cell growth at 0.1 uM measured for 48 hrs by MTT assay relative to control; type: functional; details: values are per cent of control
HT-29 [16] = test: Antiproliferative activity against human HT-29 cells assessed as inhibition of cell growth at 0.1 uM measured for 48 hrs by MTT assay relative to control; type: functional; details: HT-29, 48 h, values are per cent of control
A549 [17] = test: Antiproliferative activity against human A549 cells assessed as inhibition of cell growth at 0.1 uM measured for 48 hrs by MTT assay relative to control; type: functional
HCT-15 [18] = test: Antiproliferative activity against human HCT-15 cells assessed as inhibition of cell growth at 0.1 uM measured for 48 hrs by MTT assay relative to control; type: functional
MDA-MB-231 [19] = test: Antiproliferative activity against human MDA-MB-231 cells assessed as inhibition of cell growth at 0.1 uM measured for 48 hrs by MTT assay relative to control; type: functional
PC-3 [20] = test: Anticancer activity against human PC-3 cells; type: functional, cell-based
DU-145 = test: Anticancer activity against human DU-145 cells; type: functional, cell-based
HepG2 [21] = test: Anticancer activity against human HepG2 cells; type: functional, cell-based
PANC-1 = test: Antiproliferative activity against human PANC-1 cells by MTT assay; type: functional, cell-based
HT-29 [22] = test: Antiproliferative activity against human HT-29 cells assessed as reduction in cell growth by MTT assay; type: functional, cell-based
HepG2 [23] = test: Cytotoxicity against human HepG2 cells assessed as reduction in cell growth incubated for 24 hrs by SRB assay; type: functional, cell-based; details: HepG2, 24 h
Caco-2 = test: Cytotoxicity against human Caco-2 cells assessed as reduction in cell growth incubated for 24 hrs by MTT assay; type: functional, cell-based; details: Caco-2, 24 h
HCT-116 [24] = test: Cytotoxicity against human HCT-116 cells assessed as reduction in cell growth incubated for 24 hrs by MTT assay; type: functional, cell-based; details: HCT-116, 24 h
HeLa [25] = test: Cytotoxicity against human HeLa cells assessed as reduction in cell growth incubated for 24 hrs by MTT assay; type: functional, cell-based
HepG2 [26] = test: Antiproliferative activity against human HepG2 cells; type: functional, cell-based
[27] = Antiproliferative activity against human BJ cells; type: toxicity, cell-based
SiHa = test: Antiproliferative activity against human SiHa cells; type: functional, cell-based
A549 [28] = test: Antiproliferative activity against human A549 cells; type: functional, cell-based
NCI-H1299 = test: Anticancer activity against human NCI-H1299 cells at 100 uM relative to control; type: functional
HCT-116 [29] = test: Anticancer activity against human HCT-116 cells at 100 uM relative to control; type: functional
PC-3 [30] = test: Anticancer activity against human PC-3 cells at 100 uM relative to control; type: functional
MDA-MB-231 [31] = test: Antiproliferative activity against human MDA-MB-231 cells assessed as reduction in cell viability after 48 hrs by SRB assay; type: functional, cell-based; details: MDA-MB-231, 48 h
[32] = Antiproliferative activity against human IGR-39 cells assessed as reduction in cell viability after 48 hrs by SRB assay; type: functional, cell-based; details: IGR-39, 48 h
MDA-MB-231 [33] = test: Anticancer activity against human MDA-MB-231 cells assessed as reduction in cell viability measured for 24 hrs by MTT assay; type: functional, cell-based; details: MDA-MB-231, 24 h
[34] = Anticancer activity against human MCF-10A cells assessed as reduction in cell viability measured for 24 hrs by MTT assay; type: toxicity, cell-based
HCT-116 [35] = test: Anticancer activity against human HCT-116 cells assessed as reduction in cell viability at 50 ug/ml measured for 24 hrs by MTT assay relative to control; type: functional; details: dose 50 µg/ml
MCF7 [36] = test: Anticancer activity against human MCF7 cells assessed as reduction in cell viability at 50 ug/ml measured for 24 hrs by MTT assay relative to control; type: functional; details: dose 50 µg/ml
HFF [37] = test: Anticancer activity against human HFF cells assessed as reduction in cell viability at 50 ug/ml measured for 24 hrs by MTT assay relative to control; type: functional; details: dose 50 µg/ml
HCT-116 [38] = test: Anticancer activity against human HCT-116 cells assessed as reduction in cell viability at 10 ug/ml measured for 24 hrs by MTT assay relative to control; type: functional; details: dose 10 µg/ml
MCF7 [39] = test: Anticancer activity against human MCF7 cells assessed as reduction in cell viability at 10 ug/ml measured for 24 hrs by MTT assay relative to control; type: functional; details: dose 10 µg/ml
HFF [40] = test: Anticancer activity against human HFF cells assessed as reduction in cell viability at 10 ug/ml measured for 24 hrs by MTT assay relative to control; type: functional; details: dose 10 µg/ml
HCT-116 [41] = test: Anticancer activity against human HCT-116 cells assessed as reduction in cell viability at 50 ug/ml measured for 48 hrs by MTT assay relative to control; type: functional; details: dose 50 µg/ml
MCF7 [42] = test: Anticancer activity against human MCF7 cells assessed as reduction in cell viability at 50 ug/ml measured for 48 hrs by MTT assay relative to control; type: functional; details: dose 50 µg/ml
HFF [43] = test: Anticancer activity against human HFF cells assessed as reduction in cell viability at 50 ug/ml measured for 48 hrs by MTT assay relative to control; type: functional; details: dose 50 µg/ml
HCT-116 [44] = test: Anticancer activity against human HCT-116 cells assessed as reduction in cell viability at 10 ug/ml measured for 48 hrs by MTT assay relative to control; type: functional; details: dose 10 µg/ml
MCF7 [45] = test: Anticancer activity against human MCF7 cells assessed as reduction in cell viability at 10 ug/ml measured for 48 hrs by MTT assay relative to control; type: functional; details: dose 10 µg/ml
HFF [46] = test: Anticancer activity against human HFF cells assessed as reduction in cell viability at 10 ug/ml measured for 48 hrs by MTT assay relative to control; type: functional; details: dose 10 µg/ml

COc1ccc2[nH]c(=O)c(-c3nc(-c4ccccc4)c(-c4ccccc4)[nH]3)cc2c1
pIC50 (A549 [1]): 4.41 | pIC50 (MG-63): 4.21 | pIC50 (MCF7 [2]): 4.30 | pIC50 [3]: 4.06

CCCCCCCCCCCCn1cnc(C(=O)OCC)c1N
inhibition at 20 µM (HeLa [4]): 85% | inhibition at 20 µM (HT-29 [5]): 82% | inhibition at 20 µM (A549 [6]): 54% | inhibition at 20 µM (HCT-15 [7]): 52% | inhibition at 20 µM (MDA-MB-231 [8]): 69%

COc1cc(C(=O)c2[nH]c(N)nc2-c2cccs2)cc(OC)c1OC
pIC50 (A549 [9]): 6.95 | pIC50 (HeLa [10]): 7.44 | pIC50 (MCF7 [11]): 6.92 | pIC50 [12]: 5.72 | pIC50 (B16-F10): 6.38 | pIC50 [13]: 5.78 | pIC50 [14]: 5.61

COc1cccc2c1C(=O)c1c(O)c3c(c(O)c1C2=O)C[C@@](O)(C(=O)CO)C[C@@H]3O[C@H]1C[C@H](N)[C@H](O)[C@H](C)O1 [DOXORUBICIN]
viability, % of control at 0.1 µM (HeLa [15]): 90% | viability, % of control at 0.1 µM (HT-29 [16]): 93% | inhibition at 0.1 µM (A549 [17]): 89% | inhibition at 0.1 µM (HCT-15 [18]): 94% | inhibition at 0.1 µM (MDA-MB-231 [19]): 83% | pIC50 (PC-3 [20]): 5.64 | pIC50 (DU-145): 5.34 | pIC50 (HepG2 [21]): 6.21 | pIC50 (PANC-1): 5.85 | pIC50 (HT-29 [22]): 6.00 | IC50 (HepG2 [23]): 0.42 µg/mL (≈ 0.773 µM) | pIC50 (Caco-2): 5.29 | pIC50 (HCT-116 [24]): 5.25 | pIC50 (HeLa [25]): 5.90 | pIC50 (HepG2 [26]): 6.07

CN1CCN(c2ccc(-c3nc(-c4ccc(N5C(=O)c6cccc7c(N8CCN(C)CC8)ccc(c67)C5=O)cc4)[nH]c3-c3ccc(N4CCN(C)CC4)cc3)cc2)CC1
pIC50 [27]: 4.88 | pIC50 (SiHa): 5.27 | pIC50 (A549 [28]): 5.19

O=C(CS(=O)(=O)NS(=O)(=O)CC(=O)Nc1nc(-c2ccc(Cl)cc2)c[nH]1)Nc1nc(-c2ccc(Cl)cc2)c[nH]1
inhibition at 100 µM (NCI-H1299): 21.4% | inhibition at 100 µM (HCT-116 [29]): 41.4% | inhibition at 100 µM (PC-3 [30]): 32.1%

CCn1c(-c2ccc(F)cc2)cn(-c2cccc(S(N)(=O)=O)c2)c1=O
pEC50 (MDA-MB-231 [31]): 4.69 | pEC50 [32]: 4.56

CCOC(=O)c1ccccc1-n1c(-c2c(O)[nH]c(=O)[nH]c2=O)cnc1C
pIC50 (MDA-MB-231 [33]): 4.27 | IC50 at 24 h [34]: > 100 µM

Nc1nc(-c2ccccc2)cn1/N=C/c1cnc2ccccc2n1
Activity (HCT-116 [35]): 70% | Activity (MCF7 [36]): 64.7% | Activity (HFF [37]): 35.7% | Activity (HCT-116 [38]): 46.6% | Activity (MCF7 [39]): 41.1% | Activity (HFF [40]): 7.1% | Activity (HCT-116 [41]): 66.6% | Activity (MCF7 [42]): 83.3% | Activity (HFF [43]): 37.5% | Activity (HCT-116 [44]): 50% | Activity (MCF7 [45]): 47.3% | Activity (HFF [46]): 33.3%
